The record followed here is patent US20180348231A1, “LIGAND INDUCIBLE POLYPEPTIDE COUPLER SYSTEM” (Intrexon Corporation, priority 2015, published 2018).

For one assay, the system named is 293T cells. Briefly: Bioluminescence assay, mock (no vector), activating ligand alone. It is filed as cell-based. The following applies: negative control, no split fLuc vectors; FIG. 7. Here is the method: (§1) A day before transfection, 10,000 cells (293T cells) were plated into each well of a 96 well plate containing 100 μl of growth medium (Dulbecco's Modified Eagle's Medium with 10% Fetal Bovine Serum) without antibiotics. Plasmids in pairs, RxR Nluc with Cluc EcR and EcR_ Nluc with Cluc_ RxR (see FIG. 8; amino acid sequences for the constructs depicted in FIG. 8 are provided as SEQ ID NOs: 87-92, respectively. SEQ ID NOs: 91 and 92 correspond to the EcR and RXR amino sequences, respectively, employed in the constructs of FIG. 8), were transfected with Lipofectamine® 2000, according to manufacturer's specifications. Briefly, individual plasmid DNA (0.2 μg) and 0.5 μl of Lipofectamine 2000® was diluted in 25.0 μl of OptiMEM® I Reduced Serum Medium and incubated for 5 minutes at room temperature, volumes were doubled for co-transfections. Diluted plasmid DNA was combined with diluted Lipofectamine® 2000 and incubated for 20 minutes at room temperature. 50 μl of the DNA/Lipofectamine® 2000 complex was added to each well of the 96 well plate. Cells were incubated at 37° C. in a 5% CO2 incubator for 24 hours, prior to addition of the activating ligand Veledimex.
Twenty four hours (24hrs) post-transfection, cell culture media from each well of the 96-well plate was replaced with 100 nM Veledimex activating ligand and Dimethyl sulfoxide-DMSO (negative control). […]

The next assay deals with T1, STAT1 (Homo sapiens, UniProt P42224).
T1 construct: expressed in transfected cells; host or cells: HEK293 / 293T cells
Briefly: Split fLuc bioluminescence assay, STAT1 positive control. The following applies: Ligand − and +, FIG. 7. It is filed as cell-based.

Assay [1] has as its system split fLuc fused to EcR and RXR domains. The experiment in a line: Split firefly luciferase (fLuc) bioluminescence assay, EcR-RXR ligand inducible polypeptide coupler. It is filed as cell-based. Here is the method:
(§2) HEK293 cells were transfected with the split fLuc fused to EcR and RXR domains as follows:
as §1, with “Veledimex. […]” for “Veledimex.”

Another assay concerns the target T2, RxR domains (Homo sapiens, UniProt P28702, A451V/A495S/C475T/D450E/E481D/K452R/K476R/K478T/K511R/N456S/P457A/Q477T/Q482E/Q483P/S455K/S458Q/S470A/T473E/T516V/V462L/Y479H).
T2 construct: expressed in transfected cells
Briefly: Split fLuc bioluminescence assay, RxR homodimerization. Type of assay: cell-based. Particulars: FIGS. 11 and 12. Here is the method: (§3) Experiments were performed to test if nuclear receptor domains (i.e., EcR and RxR polypeptides) could be induced to homodimerize upon addition of ligand (FIGS. 11 and 12). STAT1 was used as control polypeptide since it is reported to self dimerize independent of ligand addition. Abbreviations in the figures are:
“RxR” is Retinoid X receptor;

A further assay deals with EcR_Nluc+Cluc_EcR. The experiment in a line: Split fLuc bioluminescence assay, EcR-EcR homodimerization. Particulars: upon ligand addition, FIGS. 11 and 12. Type of assay: cell-based. On the procedure: as §3
“EcR-EcR” means “EcR_Nluc+Cluc_EcR” which is a luciferase polypeptide split into two halves, such that an EcR polypeptide is fused to the N-terminus of a luciferase polypeptide fragment (EcR_Nluc) and another fragment of luciferase has an EcR polypeptide fused to its C-terminal end (Cluc_EcR); thereby activating luciferase (generation of bioluminescence) upon EcR homodimerization;

The target of a further assay is T3, Cluc_RxR.
T3 construct: Expressed in transfected 293T cells
T3 chain: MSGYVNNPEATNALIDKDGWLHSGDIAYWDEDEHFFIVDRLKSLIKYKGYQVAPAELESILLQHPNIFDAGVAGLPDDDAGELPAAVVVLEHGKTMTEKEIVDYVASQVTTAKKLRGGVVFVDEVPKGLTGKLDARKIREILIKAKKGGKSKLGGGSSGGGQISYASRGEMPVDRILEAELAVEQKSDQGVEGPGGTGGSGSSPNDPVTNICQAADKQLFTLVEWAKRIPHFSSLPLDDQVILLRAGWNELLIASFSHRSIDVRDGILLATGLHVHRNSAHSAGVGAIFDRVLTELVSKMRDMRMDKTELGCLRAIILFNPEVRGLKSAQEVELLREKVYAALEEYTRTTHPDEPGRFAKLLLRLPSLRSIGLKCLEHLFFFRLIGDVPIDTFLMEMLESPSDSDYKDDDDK
The experiment in a line: split firefly luciferase complementation, with and without Veledimex. Here is the method: as §2
as §1, with “CO₂” for “CO2”, “Veledimex. […]” for “Veledimex.”

“Also recorded” adds a separate entry of the source.

T1 sequence (P42224 with tags, fused parts or gaps): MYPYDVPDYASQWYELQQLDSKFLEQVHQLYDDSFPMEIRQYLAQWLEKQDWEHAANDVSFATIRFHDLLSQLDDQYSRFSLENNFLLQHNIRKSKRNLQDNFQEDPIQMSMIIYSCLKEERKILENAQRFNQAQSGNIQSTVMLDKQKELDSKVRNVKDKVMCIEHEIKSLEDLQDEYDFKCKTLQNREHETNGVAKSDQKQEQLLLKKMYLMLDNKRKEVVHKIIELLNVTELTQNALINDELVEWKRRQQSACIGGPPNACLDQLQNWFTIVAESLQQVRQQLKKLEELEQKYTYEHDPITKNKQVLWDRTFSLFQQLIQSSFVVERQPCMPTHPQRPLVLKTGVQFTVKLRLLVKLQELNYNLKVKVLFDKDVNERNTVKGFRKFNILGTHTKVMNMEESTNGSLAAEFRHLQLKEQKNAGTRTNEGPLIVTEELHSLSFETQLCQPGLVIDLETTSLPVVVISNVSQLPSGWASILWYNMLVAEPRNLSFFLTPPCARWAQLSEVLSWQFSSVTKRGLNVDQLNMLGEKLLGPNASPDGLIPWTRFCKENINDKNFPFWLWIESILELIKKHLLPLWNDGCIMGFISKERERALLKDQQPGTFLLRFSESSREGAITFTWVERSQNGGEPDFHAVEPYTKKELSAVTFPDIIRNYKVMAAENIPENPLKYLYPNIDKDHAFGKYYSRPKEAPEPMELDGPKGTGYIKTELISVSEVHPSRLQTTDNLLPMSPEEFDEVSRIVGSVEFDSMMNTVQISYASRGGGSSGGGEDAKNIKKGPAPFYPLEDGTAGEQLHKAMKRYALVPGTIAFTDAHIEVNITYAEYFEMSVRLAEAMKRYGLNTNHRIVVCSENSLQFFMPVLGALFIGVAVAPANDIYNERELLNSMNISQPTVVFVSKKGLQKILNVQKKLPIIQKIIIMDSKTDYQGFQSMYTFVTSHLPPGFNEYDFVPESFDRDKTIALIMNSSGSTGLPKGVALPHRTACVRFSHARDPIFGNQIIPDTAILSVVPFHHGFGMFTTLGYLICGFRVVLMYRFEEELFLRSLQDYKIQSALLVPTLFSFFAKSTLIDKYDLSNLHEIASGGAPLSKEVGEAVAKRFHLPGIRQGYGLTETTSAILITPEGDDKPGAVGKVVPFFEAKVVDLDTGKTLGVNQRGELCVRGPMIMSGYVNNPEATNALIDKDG
T1 sequence (P42224 with tags, fused parts or gaps): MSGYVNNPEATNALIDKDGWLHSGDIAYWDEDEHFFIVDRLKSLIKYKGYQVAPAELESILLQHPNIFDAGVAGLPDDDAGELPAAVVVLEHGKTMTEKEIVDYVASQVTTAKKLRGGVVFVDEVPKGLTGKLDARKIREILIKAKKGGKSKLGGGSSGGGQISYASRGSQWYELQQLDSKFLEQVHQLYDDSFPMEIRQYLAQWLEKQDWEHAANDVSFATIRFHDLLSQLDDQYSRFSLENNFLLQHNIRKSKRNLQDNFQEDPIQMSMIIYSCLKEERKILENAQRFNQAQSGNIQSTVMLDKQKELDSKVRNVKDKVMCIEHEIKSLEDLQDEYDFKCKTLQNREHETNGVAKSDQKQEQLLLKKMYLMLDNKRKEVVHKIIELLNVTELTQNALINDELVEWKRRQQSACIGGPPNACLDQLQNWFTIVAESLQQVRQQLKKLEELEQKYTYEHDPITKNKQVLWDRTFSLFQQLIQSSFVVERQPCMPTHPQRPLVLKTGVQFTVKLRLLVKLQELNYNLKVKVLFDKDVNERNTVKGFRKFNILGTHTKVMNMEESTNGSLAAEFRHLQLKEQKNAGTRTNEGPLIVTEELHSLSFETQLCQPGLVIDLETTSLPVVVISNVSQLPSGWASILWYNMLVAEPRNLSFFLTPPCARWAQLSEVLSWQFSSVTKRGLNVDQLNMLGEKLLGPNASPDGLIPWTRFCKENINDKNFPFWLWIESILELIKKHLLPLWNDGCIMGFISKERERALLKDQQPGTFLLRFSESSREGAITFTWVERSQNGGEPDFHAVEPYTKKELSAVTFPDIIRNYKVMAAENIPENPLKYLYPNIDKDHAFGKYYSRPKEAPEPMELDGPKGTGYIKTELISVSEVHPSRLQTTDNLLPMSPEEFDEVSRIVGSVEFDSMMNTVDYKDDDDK

Regarding `CCC[C@@H](N(NC(=O)c1cccc(OC)c1CC)C(=O)c1cc(C)cc(C)c1)C(C)(C)C` [Veledimex], the “fLuc reading, activating ligand alone” value in the assay on 293T cells was “only background readings”. Besides, the “Signal of the positive control (STAT1 split fLuc)” value on STAT1 is recorded as “unaffected”. Further, the “RxR-EcR heterodimerization (bioluminescence)” value in assay [1] (EcR_Nluc+Cluc_RXR, Example 2, FIGS. 11 and 12) was “strongest signal (bioluminescence) was observed”. Also, the “fLuc signal (bioluminescence)” value in assay [1] (cells transfected with split fLuc fused to EcR and RXR, 100 nM Veledimex, 6 hours after addition, FIG. 7, listed as activating ligand) was “fLuc signal was detected; also recorded: a clear fLuc signal is generated; also recorded: drives split fLuc signal only in the presence of activating ligand”. Also, at RxR domains, the “RxR domain homodimerization (bioluminescence)” value was “homodimerize independent of ligand”. The “EcR domain homodimerization (bioluminescence)” value with EcR_Nluc+Cluc_EcR was “statistically significant homodimerization of EcR domains”.

B1: RxR Nluc (other)
chain: MDYKDDDDKEMPVDRILEAELAVEQKSDQGVEGPGGTGGSGSSPNDPVTNICQAADKQLFTLVEWAKRIPHFSSLPLDDQVILLRAGWNELLIASFSHRSIDVRDGILLATGLHVHRNSAHSAGVGAIFDRVLTELVSKMRDMRMDKTELGCLRAIILFNPEVRGLKSAQEVELLREKVYAALEEYTRTTHPDEPGRFAKLLLRLPSLRSIGLKCLEHLFFFRLIGDVPIDTFLMEMLESPSDSQISYASRGGGSSGGGEDAKNIKKGPAPFYPLEDGTAGEQLHKAMKRYALVPGTIAFTDAHIEVNITYAEYFEMSVRLAEAMKRYGLNTNHRIVVCSENSLQFFMPVLGALFIGVAVAPANDIYNERELLNSMNISQPTVVFVSKKGLQKILNVQKKLPIIQKIIIMDSKTDYQGFQSMYTFVTSHLPPGFNEYDFVPESFDRDKTIALIMNSSGSTGLPKGVALPHRTACVRFSHARDPIFGNQIIPDTAILSVVPFHHGFGMFTTLGYLICGFRVVLMYRFEEELFLRSLQDYKIQSALLVPTLFSFFAKSTLIDKYDLSNLHEIASGGAPLSKEVGEAVAKRFHLPGIRQGYGLTETTSAILITPEGDDKPGAVGKVVPFFEAKVVDLDTGKTLGVNQRGELCVRGPMIMSGYVNNPEATNALIDKDG
notes: also called R×R Nluc; RXR-fLuc
With B1, the binding result in the assay with Cluc_RxR is listed as “binds”.
